Test results as given in ChEMBL document CHEMBL1201862, “PubChem BioAssay data set” (2004).
Activity calls are given as the source filed them.

Experiments:
Format in all cases: functional
[1] = target: T1, Apoptotic protease-activating factor 1 (Homo sapiens, UniProt O14727)
T1 sequence (O14727 whole entry): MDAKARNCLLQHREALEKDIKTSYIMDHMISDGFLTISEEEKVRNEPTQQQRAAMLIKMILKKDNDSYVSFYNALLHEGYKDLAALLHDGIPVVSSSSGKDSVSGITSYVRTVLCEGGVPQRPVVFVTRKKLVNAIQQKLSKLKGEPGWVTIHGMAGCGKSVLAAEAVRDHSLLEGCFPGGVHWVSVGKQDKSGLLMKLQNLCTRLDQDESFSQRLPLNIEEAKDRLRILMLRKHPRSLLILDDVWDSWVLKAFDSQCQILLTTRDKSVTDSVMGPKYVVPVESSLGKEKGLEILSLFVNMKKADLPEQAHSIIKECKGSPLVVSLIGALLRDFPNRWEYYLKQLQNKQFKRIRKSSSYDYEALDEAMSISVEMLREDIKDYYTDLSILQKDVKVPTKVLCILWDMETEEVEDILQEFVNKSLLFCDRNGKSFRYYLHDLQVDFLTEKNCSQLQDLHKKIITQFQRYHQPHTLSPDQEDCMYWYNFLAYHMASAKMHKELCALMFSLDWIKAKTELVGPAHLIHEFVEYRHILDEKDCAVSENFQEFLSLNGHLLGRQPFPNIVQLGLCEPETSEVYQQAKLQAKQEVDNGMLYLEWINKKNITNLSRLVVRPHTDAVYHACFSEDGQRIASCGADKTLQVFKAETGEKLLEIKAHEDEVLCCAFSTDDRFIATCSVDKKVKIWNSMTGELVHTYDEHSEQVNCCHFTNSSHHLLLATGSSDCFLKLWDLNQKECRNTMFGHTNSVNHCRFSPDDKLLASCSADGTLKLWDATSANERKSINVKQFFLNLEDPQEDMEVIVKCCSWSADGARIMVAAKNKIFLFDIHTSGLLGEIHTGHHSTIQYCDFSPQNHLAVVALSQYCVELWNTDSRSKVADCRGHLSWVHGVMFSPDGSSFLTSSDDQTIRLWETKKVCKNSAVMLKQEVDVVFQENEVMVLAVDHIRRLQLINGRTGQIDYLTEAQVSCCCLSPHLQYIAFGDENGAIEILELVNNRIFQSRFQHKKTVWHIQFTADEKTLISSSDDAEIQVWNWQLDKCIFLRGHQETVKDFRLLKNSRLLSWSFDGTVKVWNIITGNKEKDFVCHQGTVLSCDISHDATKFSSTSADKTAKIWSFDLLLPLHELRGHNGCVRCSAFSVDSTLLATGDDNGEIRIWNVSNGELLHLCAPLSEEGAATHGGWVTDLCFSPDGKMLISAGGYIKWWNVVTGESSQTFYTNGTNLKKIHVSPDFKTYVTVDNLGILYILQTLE

Protein RecA = target: T2, Protein RecA (Mycobacterium tuberculosis, UniProt P9WHJ3); experiment: Fluorescence Cell-Free Homogeneous Dose Retest to Identify Inhibitors of RecA-Intein Splicing Activity. [Related pubchem assays (depositor defined):AID2097, AID2223, AID489010, AID492950]
T2 sequence (P9WHJ3 whole entry): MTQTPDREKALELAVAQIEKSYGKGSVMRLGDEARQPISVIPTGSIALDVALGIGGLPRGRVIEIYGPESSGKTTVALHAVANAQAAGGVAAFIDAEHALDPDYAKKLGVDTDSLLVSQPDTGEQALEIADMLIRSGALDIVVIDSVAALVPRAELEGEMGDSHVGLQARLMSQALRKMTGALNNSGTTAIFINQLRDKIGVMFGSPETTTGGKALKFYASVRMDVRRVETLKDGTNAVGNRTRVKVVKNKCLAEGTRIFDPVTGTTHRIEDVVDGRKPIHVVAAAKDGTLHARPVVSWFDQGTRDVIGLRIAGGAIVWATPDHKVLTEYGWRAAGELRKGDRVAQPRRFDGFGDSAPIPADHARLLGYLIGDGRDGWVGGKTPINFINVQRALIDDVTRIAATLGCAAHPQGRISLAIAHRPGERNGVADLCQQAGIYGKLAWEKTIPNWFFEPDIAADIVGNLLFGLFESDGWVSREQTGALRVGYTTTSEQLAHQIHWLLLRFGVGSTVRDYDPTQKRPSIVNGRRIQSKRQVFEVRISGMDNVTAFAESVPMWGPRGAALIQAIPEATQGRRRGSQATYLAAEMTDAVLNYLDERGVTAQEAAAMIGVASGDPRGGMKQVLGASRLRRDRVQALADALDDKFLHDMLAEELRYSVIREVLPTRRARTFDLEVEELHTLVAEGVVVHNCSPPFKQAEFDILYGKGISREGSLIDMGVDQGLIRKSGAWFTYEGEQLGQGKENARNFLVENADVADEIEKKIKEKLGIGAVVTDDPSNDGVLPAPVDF

Genome polyprotein = Genome polyprotein (dengue virus type 2, UniProt P29990); experiment: Dengue-2 NS5 methyltransferase inhibitors, primary screen, biochemical, confirmation dose response (AID 588689)
Genome polyprotein, sequence (P29990 2492-3391 limits assumed): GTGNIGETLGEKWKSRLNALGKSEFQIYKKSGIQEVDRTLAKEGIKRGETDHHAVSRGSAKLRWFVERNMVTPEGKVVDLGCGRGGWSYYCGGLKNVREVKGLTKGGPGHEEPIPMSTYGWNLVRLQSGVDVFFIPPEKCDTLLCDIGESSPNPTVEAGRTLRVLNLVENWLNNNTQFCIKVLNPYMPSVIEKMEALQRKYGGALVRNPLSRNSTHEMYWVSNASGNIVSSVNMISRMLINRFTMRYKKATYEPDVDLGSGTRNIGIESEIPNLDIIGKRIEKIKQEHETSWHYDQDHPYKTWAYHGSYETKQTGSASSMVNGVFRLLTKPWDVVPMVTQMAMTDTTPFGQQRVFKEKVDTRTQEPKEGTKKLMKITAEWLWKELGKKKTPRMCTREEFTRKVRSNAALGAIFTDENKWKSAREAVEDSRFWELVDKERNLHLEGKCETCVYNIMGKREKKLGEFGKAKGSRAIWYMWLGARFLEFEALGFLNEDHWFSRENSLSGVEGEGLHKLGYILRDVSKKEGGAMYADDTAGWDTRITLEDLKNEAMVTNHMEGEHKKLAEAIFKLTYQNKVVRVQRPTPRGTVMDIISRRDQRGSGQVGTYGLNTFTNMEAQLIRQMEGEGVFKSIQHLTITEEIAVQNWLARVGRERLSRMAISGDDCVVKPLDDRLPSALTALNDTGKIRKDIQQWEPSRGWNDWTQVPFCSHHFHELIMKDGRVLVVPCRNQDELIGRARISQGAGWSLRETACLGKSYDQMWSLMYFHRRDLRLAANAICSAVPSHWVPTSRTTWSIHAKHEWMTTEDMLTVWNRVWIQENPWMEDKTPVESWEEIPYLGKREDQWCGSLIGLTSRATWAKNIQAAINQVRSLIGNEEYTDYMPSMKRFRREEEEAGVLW

SMILES: Oc1nc(Nc2ccccc2Cl)cc2ccccc12
- IC50 [1]: 6.11 µM (active)
- EC50 (Protein RecA): 1.99 µM (active)

SMILES: O=C1C=C(c2c(O)ccc3ccccc23)c2ccccc2C1=O
- IC50 (Genome polyprotein): 5.91 µM (active)

SMILES: Cc1nc2c(=O)n(C)c(=O)nc-2n(C)n1
- IC50 [1]: 0.0375 µM (active)
- EC50 (Protein RecA): 0.0209 µM (active)

SMILES: O=C(CCN1C(=O)/C(=C\c2ccco2)SC1=S)Nc1ccc(C(=O)O)c(O)c1
- IC50 (Genome polyprotein): > 100 µM (active)
